Tested on: 817829-284-R-J1-PDC multi-cell spheroid viability
Assay: Anticancer human tumor 817829-284-R-J1-PDC patient-derived colon adenocarcinoma cell line growth inhibition [PI3K]
Conditions: for IC50: curve of first compound; for viability, T/C: stronger effect = lower value; active = viability on the fitted dose curve at most 10% of control; inactive = the rest
How it was run: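 Viability of mixed-cell spheroids was determined after exposure to pairwise combinations, one partner being inavolisib, alpelisib, duvelisib or copanlisib. Highest tested concentration matched clinical Cmax where known and 10 microM where not, descending in half-log steps.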

[1] = second compound 0.00316 µM, first compound 0.0316 µM
[2] = second compound 0.00316 µM, first compound 0.1 µM
[3] = second compound 0.01 µM, first compound 0.0316 µM
[4] = second compound 0.01 µM, first compound 0.1 µM
[5] = second compound 0.0316 µM, first compound 0.0316 µM
[6] = second compound 0.0316 µM, first compound 0.1 µM
[7] = second compound 0.1 µM, first compound 0.0316 µM
[8] = second compound 0.1 µM, first compound 0.1 µM
[9] = second compound 0.316 µM, first compound 0.0316 µM
[10] = second compound 0.316 µM, first compound 0.1 µM
[11] = second compound 1 µM, first compound 0.0316 µM
[12] = second compound 1 µM, first compound 0.1 µM
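Note: spheroids exposed to agents for seven days before readout.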
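Throughout, for viability, T/C: percent of vehicle DMSO control viability which is 100%.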

C[C@@H](NC(=O)c1ncnc(N)c1Cl)c1ncc(C(=O)Nc2cc(C(F)(F)F)c(Cl)cn2)s1 + COc1c(OCCCN2CCOCC2)ccc2c3n(c(=NC(=O)c4cnc(N)nc4)nc12)CCN3
active: viability, T/C (second compound 1 µM, first compound 1 µM) 9.58% | viability, T/C (second compound 1 µM, first compound 3.16 µM) 10% | viability, T/C (second compound 1 µM, first compound 10 µM) 4.95%
> 10000 nM: IC50 (second compound 0.01 µM) | IC50 (second compound 0.0316 µM)
10000 nM: IC50 (second compound 0.00316 µM)
inactive: viability, T/C [1] 126% | viability, T/C [2] 153% | viability, T/C (second compound 0.00316 µM, first compound 0.316 µM) 59.9% | viability, T/C (second compound 0.00316 µM, first compound 1 µM) 62% | viability, T/C (second compound 0.00316 µM, first compound 3.16 µM) 69.7% | viability, T/C (second compound 0.00316 µM, first compound 10 µM) 69.3% | viability, T/C [3] 101% | viability, T/C [4] 79.9% | viability, T/C (second compound 0.01 µM, first compound 0.316 µM) 72% | viability, T/C (second compound 0.01 µM, first compound 1 µM) 68.5% | viability, T/C (second compound 0.01 µM, first compound 3.16 µM) 75.3% | viability, T/C (second compound 0.01 µM, first compound 10 µM) 87.7% | viability, T/C [5] 68.5% | viability, T/C [6] 64.1% | viability, T/C (second compound 0.0316 µM, first compound 0.316 µM) 43.2% | viability, T/C (second compound 0.0316 µM, first compound 1 µM) 57.1% | viability, T/C (second compound 0.0316 µM, first compound 3.16 µM) 64% | viability, T/C (second compound 0.0316 µM, first compound 10 µM) 72.3% | viability, T/C [7] 31% | viability, T/C [8] 38% | viability, T/C (second compound 0.1 µM, first compound 0.316 µM) 29.8% | viability, T/C (second compound 0.1 µM, first compound 1 µM) 32.3% | viability, T/C (second compound 0.1 µM, first compound 3.16 µM) 41.5% | viability, T/C (second compound 0.1 µM, first compound 10 µM) 62.8% | viability, T/C [9] 26.3% | viability, T/C [10] 20% | viability, T/C (second compound 0.316 µM, first compound 0.316 µM) 24.6% | viability, T/C (second compound 0.316 µM, first compound 1 µM) 23.8% | viability, T/C (second compound 0.316 µM, first compound 3.16 µM) 21.9% | viability, T/C (second compound 0.316 µM, first compound 10 µM) 16.5% | viability, T/C [11] 11.8% | viability, T/C [12] 10.6% | viability, T/C (second compound 1 µM, first compound 0.316 µM) 10.6%
< 31.6 nM: IC50 (second compound 0.1 µM) | IC50 (second compound 0.316 µM) | IC50 (second compound 1 µM)

CC(C)n1nc(-c2ccc3oc(N)nc3c2)c2c(N)ncnc21 + COc1c(OCCCN2CCOCC2)ccc2c3n(c(=NC(=O)c4cnc(N)nc4)nc12)CCN3
inactive: viability, T/C (second compound 0.00316 µM, first compound 0.000316 µM) 66.8% | viability, T/C (second compound 0.00316 µM, first compound 0.001 µM) 83.7% | viability, T/C (second compound 0.00316 µM, first compound 0.00316 µM) 72.2% | viability, T/C (second compound 0.00316 µM, first compound 0.01 µM) 45.5% | viability, T/C [1] 42.6% | viability, T/C [2] 17.8% | viability, T/C (second compound 0.01 µM, first compound 0.000316 µM) 44% | viability, T/C (second compound 0.01 µM, first compound 0.001 µM) 83.3% | viability, T/C (second compound 0.01 µM, first compound 0.00316 µM) 67.6% | viability, T/C (second compound 0.01 µM, first compound 0.01 µM) 70.9% | viability, T/C [3] 26.6% | viability, T/C [4] 14.4% | viability, T/C (second compound 0.0316 µM, first compound 0.000316 µM) 78.5% | viability, T/C (second compound 0.0316 µM, first compound 0.001 µM) 72.7% | viability, T/C (second compound 0.0316 µM, first compound 0.00316 µM) 45.5% | viability, T/C (second compound 0.0316 µM, first compound 0.01 µM) 46.5% | viability, T/C [5] 37.7% | viability, T/C [6] 19.6% | viability, T/C (second compound 0.1 µM, first compound 0.000316 µM) 31.9% | viability, T/C (second compound 0.1 µM, first compound 0.001 µM) 31.8% | viability, T/C (second compound 0.1 µM, first compound 0.00316 µM) 38% | viability, T/C (second compound 0.1 µM, first compound 0.01 µM) 31.1% | viability, T/C [7] 26.9% | viability, T/C [8] 17% | viability, T/C (second compound 0.316 µM, first compound 0.000316 µM) 21.1% | viability, T/C (second compound 0.316 µM, first compound 0.001 µM) 22.8% | viability, T/C (second compound 0.316 µM, first compound 0.00316 µM) 23.6% | viability, T/C (second compound 0.316 µM, first compound 0.01 µM) 17.7% | viability, T/C [9] 21.8% | viability, T/C [10] 18.7%
< 0.316 nM: IC50 (second compound 0.1 µM) | IC50 (second compound 0.316 µM) | IC50 (second compound 1 µM)
5.26 nM: IC50 (second compound 0.0316 µM)
16.1 nM: IC50 (second compound 0.01 µM)
13.6 nM: IC50 (second compound 0.00316 µM)
active: viability, T/C (second compound 1 µM, first compound 0.000316 µM) 9.62% | viability, T/C (second compound 1 µM, first compound 0.001 µM) 14% | viability, T/C (second compound 1 µM, first compound 0.00316 µM) 9.7% | viability, T/C (second compound 1 µM, first compound 0.01 µM) 10.8% | viability, T/C [11] 8.57% | viability, T/C [12] 6.68%

From PubChem BioAssay AID1963969 (Molecular Pharmacology Branch, DTP, NCI, 2024)
